# Laboratory results taken from paper PMC12040169 (PLOS Biology, 2025).
# Assay: in vitro
# Conditions: human, hela cells, % viability
row,Structure (SMILES),"viability at 28.5 h, 10 µM [%]"
1,COc1ccc(S(=O)(=O)NCCN2CCOCC2)c(C)c1C [CBK266479],99.4
2,Cc1cc(C)nc(NC2=NCCN2C(=S)Nc2ccccc2)n1 [CBK266481],95.7
3,Cc1ccc(OCc2nnc(SCC(=O)c3ccc(Br)cc3)n2N)cc1 [CBK266482],99.5
4,O=C(CSc1ncnc2sc3c(c12)CCC3)Nc1nsc(-c2ccc(Cl)cc2)n1 [CBK266484],118
5,O=C(O)c1ccc(NCc2ccccc2OCc2ccc(F)cc2)cc1 [CBK266487],101
6,COc1ccc(NC(=O)CC2NC3CCCCC3NC2=O)cc1 (centres unmarked) [CBK266488],89.7
7,O=C(O)C1CCCCC1c1nnc(S)[nH]1 (centres unmarked) [CBK266490],96.4
8,COc1ccc(CNS(=O)(=O)c2cc(OCC(N)=O)c(C)cc2Cl)cc1 [CBK266495],110
9,CN(C)S(=O)(=O)N1CCN(c2ccc([N+](=O)[O-])c(NCCc3ccccc3)c2)CC1 [CBK266498],102
10,CCOC(=O)c1c(NC(=O)CSc2ccc(F)cc2)sc2c1CCCC2 [CBK266506],95.9
11,Cc1cc(C)nc(N/C(=N/C(=O)CCN2C(=O)c3ccccc3C2=O)Nc2cccc(Cl)c2)n1 [CBK266507],97
12,CC(C)(C)c1cc(CN)c(C(=O)O)o1 [CBK266510C],94.3
13,Cc1nc2ccc(NC(=O)N3CCC(c4ccccc4)C3)cc2s1 (centres unmarked) [CBK266512],98.8
14,Cc1ccc(S(=O)(=O)NC(C)C(=O)NCc2ccco2)cc1 (centres unmarked) [CBK266514],109
15,Cc1c(C(=O)C2=C(O)C(=O)N(CCCN(C)C)C2c2ccccn2)cnn1-c1ccccc1 (centres unmarked) [CBK266516],100
16,Cc1nnc(SCC(=O)NC(C)(C)C)n1NCc1cccc(Br)c1 [CBK266517],101
17,COc1cc(C)c(Cl)c(C)c1S(=O)(=O)NCc1ccc2c(c1)OCO2 [CBK266518],96
18,COc1ccc(S(=O)(=O)NCCCN2CCOCC2)c(C)c1C [CBK266519],110
19,Cc1nnc(SCC(=O)Nc2nsc(-c3ccc(Cl)cc3)n2)s1 [CBK266525],91.5
20,CCS(=O)(=O)n1nc(-c2ccc(OC)cc2)nc1SC [CBK266526],103
21,O=C(/C=C/c1cn(-c2ccccc2)nc1-c1cc2ccccc2oc1=O)NCc1ccccc1 [CBK266530],100
22,O=C(CSc1ccc(Cl)cc1)Nc1cc(C(=O)O)cc(C(=O)O)c1 [CBK266531],98.8

row,Structure (SMILES),"viability at 28.5 h, 10 µM [%]"
1,COc1ccccc1NC(=O)c1ccc(-c2nnc(-c3ccccc3)o2)cc1 [CBK266533],107
2,Cc1ccc2nc(NCCC(=O)O)nc(-c3ccccc3)c2c1 [CBK266537],97.4
3,COc1ccc(OCc2nn(-c3nc4ccccc4s3)c(N)c2-c2ccccc2)cc1 [CBK266539],98.5
4,O=C(Nc1ccc(O)cc1C(=O)O)c1ccc2c(c1)C(=O)N(Cc1ccccc1)C2=O [CBK266540],88.7
5,CC(Oc1ccc(Cl)cc1Cl)C(=O)Nc1ccc(OCC(=O)O)cc1 (centres unmarked) [CBK266542],98.8
6,Cc1c(C(=O)C2=C(O)C(=O)N(Cc3cccnc3)C2c2cccnc2)cnn1-c1ccccc1 (centres unmarked) [CBK266543],105
7,COc1cc(NC(=O)c2ccc3c(c2)C(=O)N(Cc2ccccc2)C3=O)c(C(=O)O)cc1OC [CBK266544],106
8,CC(=O)Nc1ccc(S(=O)(=O)N2CCN(S(=O)(=O)N(C)C)CC2)cc1 [CBK266545],95.9
9,COc1ccc(NC(=O)CCCSc2nc(N)c3c(C)c(C)sc3n2)cc1 [CBK266547],105
10,CCOc1ccccc1Nc1nc(N)nc(CN2CCCCC2C)n1 (centres unmarked) [CBK266548],105
11,Cc1ccc(S(=O)(=O)N(C)C)cc1NC(=O)C12CCC(C)(C(=O)C1)C2(C)C (centres unmarked) [CBK266551],108
12,CCOC(=O)c1cc(NC(=O)CSc2nc3ccccc3[nH]2)ccc1Cl [CBK266557],99.8
13,CC1(C)CC(NC(=O)C23CCC(C)(c4nc5ccccc5nc42)C3(C)C)CC(C)(C)N1 (centres unmarked) [CBK266559],99.3
14,Cc1cc(Cl)c(S(=O)(=O)Nc2ccc(C#N)cc2)cc1OCC(N)=O [CBK266560],112
15,Cc1cc(C)nc(N(C#N)CC(=O)c2ccc(Br)cc2)n1 [CBK266562],91.3
16,Cn1c(CSCc2ccccc2)nnc1SCC(=O)c1ccc(Br)cc1 [CBK266565],94.9
17,O=C(CSC1c2ccccc2Oc2ccccc21)Nc1cccc(C(=O)O)c1 [CBK266566],97.9
18,CCOC(=O)c1c(NC(=O)CSc2n[nH]c(N)n2)sc2c1CCCCC2 [CBK266569],101
19,O=c1c(-c2ccco2)[n+]([O-])c2ccccc2n1OCc1ccccn1 [CBK266570],91.8
20,NS(=O)(=O)c1ccc(NC(=O)c2ccc(NC(=O)C3COc4ccccc4O3)cc2)cc1 (centres unmarked) [CBK266573],101
21,O=C1c2ccc(-c3ccc4c(c3)C(=O)N(Cc3ccco3)C4=O)cc2C(=O)N1Cc1ccco1 [CBK266578],93.3
22,O=C(NCCOc1ccccc1Cc1ccccc1)c1cncc(Br)c1 [CBK266581],103

row,Structure (SMILES),"viability at 28.5 h, 10 µM [%]"
1,Cc1cc(Cl)c(S(=O)(=O)Nc2ccc(Oc3ccccc3)cc2)cc1OCC(N)=O [CBK266583],99.8
2,CCOc1ccc(C(=O)C2=C(O)C(=O)N(CCN(C)C)C2c2cccnc2)cc1Cl (centres unmarked) [CBK266585],96.5
3,Oc1ccc(NCc2ccc(OCc3cccs3)cc2)cc1 [CBK266586],89
4,O=C(O)c1ccc(NC(=O)c2cn(-c3ccccc3)nc2-c2cc3ccccc3o2)cc1 [CBK266587C],106
5,CCCN1CCN(c2ncnc3scc(C4COc5ccccc5O4)c23)CC1 (centres unmarked) [CBK266590],102
6,O=c1c2cn[nH]c2nc(SCc2ccc3c(c2)OCCO3)n1-c1ccccc1 [CBK266593],91.8
7,COc1cccc(CNCCO)c1OCc1ccccc1F [CBK266594C],104
8,COc1cc(CNc2ccc3[nH]c(=O)[nH]c3c2)cc(Br)c1OCC(=O)NC(C)(C)C [CBK266596],57
9,NC(=O)C1(N2CCCCC2)CCN(C2CC(=O)N(Cc3ccc(N4CCCC4=O)cc3)C2=O)CC1 (centres unmarked) [CBK266598],102
10,COc1cccc2cc(C(=O)C3=C(O)C(=O)N(CCN4CCOCC4)C3c3cccc(Cl)c3)oc12 (centres unmarked) [CBK266599],100
11,Cc1sc2nc(SCC(=O)Nc3ccc(S(N)(=O)=O)cc3)n(-c3ccccc3)c(=O)c2c1C [CBK266600],108
12,CCOC(=O)CSc1nc2ccc(I)cc2c(=O)n1Cc1ccccc1 [CBK266602],107
13,Cc1ccc(OCc2nnc(SCC(=O)O)n2N)cc1 [CBK266603],95.8
14,O=C(C1=C(O)C(=O)N(CCCN2CCOCC2)C1c1ccccn1)c1ccccc1 (centres unmarked) [CBK266604],93.4
15,OCCNc1nc(Nc2ccc(O)cc2)nc2ccccc12 [CBK266606C],97.3
16,N#Cc1c(O)nc(SCC(=O)Nc2ccc(Oc3ccccc3)cc2)nc1-c1ccccc1 [CBK266607],118
17,C=CCn1c(COc2cccc3ccc(C)nc23)nnc1SC [CBK266608],94.2
18,Cc1ccc(S(=O)(=O)NCCCO)cc1C(=O)O [CBK266610],89.7
19,COc1ccc(CNC(=O)CSc2nnc(-c3ccncc3)n2C)cc1 [CBK266613],95
20,C=CCOc1ccc(-c2nc3s/c(=C4\C(=O)N(Cc5ccccc5F)c5ccccc54)c(=O)n3n2)cc1 [CBK266615],108
21,C#CCOc1cc(Br)c(/C=C(/C#N)c2ccc([N+](=O)[O-])cc2)cc1OCC [CBK266617],104
22,Cn1cnnc1Sc1cc(N2CCN(S(=O)(=O)c3ccc(Cl)c(Cl)c3)CC2)ccc1[N+](=O)[O-] [CBK266618],98.3

row,Structure (SMILES),"viability at 28.5 h, 10 µM [%]"
1,COc1cc(C=O)ccc1OC(=O)c1nsc(Cl)c1Cl [CBK266619],89.1
2,O=C(CSc1nnc(-c2ccncc2)n1-c1ccccc1)Nc1ccc([N+](=O)[O-])cc1 [CBK266620],96.3
3,COc1ccc(OC)c(NC(=O)CSc2nnc(-c3ccncc3)n2C)c1 [CBK266623],103
4,O=C(Nc1ccc(S(=O)(=O)Nc2cncs2)cc1)c1ccc(-c2cccc(C(F)(F)F)c2)o1 [CBK266625],89
5,CCN(CC)CCn1c2ccccc2c2nc(C)sc21 [CBK266628C],100
6,COc1ccccc1-c1nnc(SCc2ccc(C(=O)O)cc2)[nH]1 [CBK266631],99.5
7,Cc1cc(S(=O)(=O)NCC(=O)O)ccc1F [CBK266632],112
8,Cc1cc(C)c(OCC(=O)Nc2ccc3oc(-c4cncc(Br)c4)nc3c2)c(Cl)c1 [CBK266634],100
9,OCCNc1nc(Nc2ccc(Cl)cc2)nc(N2CCCCC2)n1 [CBK266638],97.3
10,CC(=O)C(Sc1nc(N2CCOCC2)nc(N2CCOCC2)n1)C(=O)Nc1ccccc1 (centres unmarked) [CBK266643],93
11,CN(Cc1ccccc1)S(=O)(=O)c1ccc2c(c1)n(C)c(=O)n2C [CBK266644],95.6
12,O=C(NCc1ccccn1)C1CCC(Cn2c(=S)[nH]c3ccccc3c2=O)CC1 (centres unmarked) [CBK266645],95.6
13,CN1CCN(S(=O)(=O)c2ccc3c4c(cccc24)C(=O)N3)CC1 [CBK266647],111
14,N#Cc1c(NC(=O)CSc2nnc(N)s2)sc2c1CCCC2 [CBK266649],99.8
15,CC(=O)NCCOc1nc(N(C)C)nc(N2CCOCC2)n1 [CBK266651],96.7
16,Cc1ccc(-c2nnc(N3CCN(C(=O)CSc4nc[nH]n4)CC3)c3ccccc23)cc1 [CBK266652],107
17,O=C(CS(=O)(=O)Cc1ccccc1)Nc1ccc(S(=O)(=O)N2CCCCCC2)cc1 [CBK266653],98.8
18,Nc1nc(CN2C(=O)c3ccccc3C2=O)n[nH]1 [CBK266655],105
19,COc1ccc(C2=NN(C(=O)CCC(=O)O)C(c3cccs3)C2)cc1OC (centres unmarked) [CBK266656],118
20,CN(CCO)S(=O)(=O)c1cccc(C(=O)O)c1 [CBK266657],89.4
